Reference: US8952024B2, “Herbicidal pyrimidone derivatives” (E I du Pont de Nemours and Company, priority 2009, dated 2015)

Columns and labels:
Type in all cases: in vivo
[1] = tested on: cocklebur (Xanthium strumarium); experiment: Test B pre-/postemergence plant response
Outline: (§1)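 Pre-em in loam/sand; post-em at 1–4 leaf (2–18 cm) in peat mix. Solvent + surfactant formulation. Greenhouse 13–15 d; visual % control vs untreated, 0–100.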

[2] = tested on: lambsquarters (Chenopodium album); experiment: Test B pre-/postemergence plant response
Outline: as §1

[3] = tested on: wheat (Triticum aestivum); experiment: Test B pre-/postemergence plant response
Outline: as §1

[4] = tested on: blackgrass (Alopecurus myosuroides); experiment: Test B pre-/postemergence plant response
Outline: as §1

[5] = tested on: pigweed (Amaranthus retroflexus); experiment: Test B pre-/postemergence plant response
Outline: as §1

[6] = tested on: kochia (Kochia scoparia); experiment: Test B pre-/postemergence plant response
Outline: as §1

[7] = tested on: wild oat (Avena fatua); experiment: Test B pre-/postemergence plant response
Outline: as §1

[8] = tested on: soybean (Glycine max); experiment: Test B pre-/postemergence plant response
Outline: as §1

[9] = tested on: velvetleaf (Abutilon theophrasti); experiment: Test B pre-/postemergence plant response
Outline: as §1

[10] = tested on: Surinam grass (Brachiaria decumbens); experiment: Test B pre-/postemergence plant response
Outline: as §1

[11] = tested on: windgrass (Apera spica-venti); experiment: Test B postemergence plant response
Outline: (§2)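 Visual ratings from 0 (no effect) to 100 (complete control), made against controls 13–15 days after treatment, kept in a greenhouse. Compounds were applied postemergence to potted plants at the 1- to 4-leaf stage (2–18 cm).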

[12] = tested on: chickweed (Stellaria media); experiment: Test B postemergence plant response
Outline: as §2

[13] = tested on: canarygrass (Phalaris minor); experiment: Test B postemergence plant response
Outline: as §2

[14] = 250 g ai/ha, Preemergence, 0 to 100 scale
[15] = Preemergence, 31 g ai/ha, scale 0 to 100 (0 no effect, 100 complete control)
[16] = Preemergence, 125 g ai/ha, 0 to 100 scale
[17] = Postemergence, 62 g ai/ha, scale 0 (no effect) to 100 (complete control), 13 to 15 days
[18] = Postemergence, 125 g ai/ha, visual rating after 13 to 15 days, scale 0 (no effect) to 100 (complete control)
[19] = Postemergence, 250 g ai/ha, scale 0 to 100
[20] = Preemergence, 62 g ai/ha, scale 0 to 100 (0 no effect, 100 complete control)
[21] = Postemergence, 31 g ai/ha, scale 0 to 100 (0 no effect, 100 complete control)
[22] = 31 g ai/ha, postemergence, scale 0 to 100, 0 is no effect, 100 is complete control
[23] = Postemergence, 250 g ai/ha, scale 0 to 100 (0 no effect, 100 complete control)
[24] = Preemergence, 125 g ai/ha, scale 0 to 100, 0 no effect, 100 complete control

Compound: Cc1c(Cl)cccc1-n1c(-c2ccccc2)ncc(C(=O)C2=C(O)CCCC2=O)c1=O [Compound 40]
- Plant response rating, Cocklebur [1, 14]: 100
- Plant response rating, Cocklebur [1, 15]: 65
- Cocklebur plant response rating [1, 16]: 85
- Plant response rating, Lambsquarters [2, 14]: 100
- Plant response rating, Lambsquarters [2, 17]: 100
- Plant response rating, Lambsquarters [2, 18]: 100
- Lambsquarters plant response rating [2, 19]: 100
- Plant response rating, Lambsquarters [2, 15]: 100
- Plant response rating, Lambsquarters [2, 20]: 100
- Lambsquarters plant response rating [2, 16]: 100
- Plant response rating, Wheat [3, 17]: 20
- Plant response rating, Wheat [3, 18]: 30
- Plant response rating, Wheat [3, 15]: 0
- Wheat plant response rating [3, 16]: 0
- Plant response rating, Blackgrass [4, 14]: 5
- Plant response rating, Blackgrass [4, 21]: 0
- Plant response rating, Blackgrass [4, 17]: 10
- Plant response rating, Blackgrass [4, 18]: 10
- Blackgrass plant response rating [4, 19]: 15
- Plant response rating, Blackgrass [4, 15]: 0
- Plant response rating, Blackgrass [4, 20]: 0
- Blackgrass plant response rating [4, 16]: 0
- Plant response rating, Pigweed [5, 14]: 100
- Plant response rating, Pigweed [5, 17]: 98
- Plant response rating, Pigweed [5, 18]: 100
- Plant response rating, Pigweed [5, 15]: 98
- Pigweed plant response rating [5, 16]: 100
- Plant response rating, Kochia [6, 17]: 0
- Plant response rating, Kochia [6, 18]: 10
- Kochia plant response rating [6, 19]: 75
- Plant response rating, Oat, Wild [7, 14]: 30
- Plant response rating, Oat, Wild [7, 17]: 85
- Plant response rating, Oat, Wild [7, 18]: 90
- Plant response rating, Oat, Wild [7, 15]: 0
- Oat, Wild plant response rating [7, 16]: 0
- Plant response rating, Soybean [8, 14]: 70
- Plant response rating, Soybean [8, 17]: 100
- Plant response rating, Soybean [8, 18]: 100
- Plant response rating, Soybean [8, 15]: 0
- Soybean plant response rating [8, 16]: 20
- Plant response rating, Velvetleaf [9, 14]: 100
- Plant response rating, Velvetleaf [9, 17]: 100
- Plant response rating, Velvetleaf [9, 18]: 100
- Plant response rating, Velvetleaf [9, 15]: 80
- Velvetleaf plant response rating [9, 16]: 100
- Plant response rating, Surinam Grass [10, 14]: 90
- Plant response rating, Surinam Grass [10, 17]: 95
- Plant response rating, Surinam Grass [10, 18]: 98
- Plant response rating, Surinam Grass [10, 15]: 40
- Surinam Grass plant response rating [10, 16]: 85
- Plant response rating, Windgrass [11, 17]: 70
- Plant response rating, Windgrass [11, 18]: 80
- Plant response rating, Chickweed [12, 21]: 100
- Plant response rating, Chickweed [12, 17]: 100
- Plant response rating, Chickweed [12, 18]: 100
- Chickweed plant response rating [12, 19]: 100
- Plant response rating, Canarygrass [13, 21]: 20
- Plant response rating, Canarygrass [13, 17]: 20
- Plant response rating, Canarygrass [13, 18]: 30
- Canarygrass plant response rating [13, 19]: 35

Compound: Cc1cc(-n2c(-c3ccccc3)ncc(C(=O)C3=C(O)CCCC3=O)c2=O)ccc1F [Compound 53]
- Plant response rating, Cocklebur [1, 22]: 80
- Plant response rating, Cocklebur [1, 14]: 70
- Plant response rating, Cocklebur [1, 17]: 85
- Plant response rating, Cocklebur [1, 18]: 85
- Plant response rating, Cocklebur [1, 23]: 90
- Plant response rating, Cocklebur [1, 15]: 10
- Plant response rating, Cocklebur [1, 20]: 20
- Plant response rating, Cocklebur [1, 24]: 65
- Plant response rating, Lambsquarters [2, 22]: 90
- Plant response rating, Lambsquarters [2, 14]: 100
- Plant response rating, Lambsquarters [2, 17]: 95
- Plant response rating, Lambsquarters [2, 18]: 98
- Plant response rating, Lambsquarters [2, 23]: 98
- Plant response rating, Lambsquarters [2, 15]: 98
- Plant response rating, Lambsquarters [2, 20]: 100
- Plant response rating, Lambsquarters [2, 24]: 100
- Plant response rating, Wheat [3, 22]: 20
- Plant response rating, Wheat [3, 17]: 25
- Plant response rating, Wheat [3, 18]: 30
- Plant response rating, Wheat [3, 23]: 50
- Plant response rating, Wheat [3, 15]: 0
- Plant response rating, Wheat [3, 20]: 0
- Plant response rating, Wheat [3, 24]: 0
- Plant response rating, Blackgrass [4, 22]: 20
- Plant response rating, Blackgrass [4, 14]: 60
- Plant response rating, Blackgrass [4, 17]: 30
- Plant response rating, Blackgrass [4, 18]: 40
- Plant response rating, Blackgrass [4, 23]: 50
- Plant response rating, Blackgrass [4, 15]: 0
- Plant response rating, Blackgrass [4, 20]: 5
- Plant response rating, Blackgrass [4, 24]: 5
- Plant response rating, Pigweed [5, 22]: 85
- Plant response rating, Pigweed [5, 17]: 95
- Plant response rating, Pigweed [5, 18]: 100
- Plant response rating, Pigweed [5, 23]: 100
- Plant response rating, Pigweed [5, 15]: 95
- Plant response rating, Pigweed [5, 20]: 98
- Plant response rating, Pigweed [5, 24]: 100
- Plant response rating, Kochia [6, 22]: 45
- Plant response rating, Kochia [6, 17]: 65
- Plant response rating, Kochia [6, 18]: 75
- Plant response rating, Kochia [6, 23]: 80
- Plant response rating, Oat, Wild [7, 22]: 50
- Plant response rating, Oat, Wild [7, 17]: 70
- Plant response rating, Oat, Wild [7, 18]: 85
- Plant response rating, Oat, Wild [7, 23]: 85
- Plant response rating, Oat, Wild [7, 15]: 0
- Plant response rating, Oat, Wild [7, 20]: 0
- Plant response rating, Oat, Wild [7, 24]: 0
- Plant response rating, Soybean [8, 22]: 90
- Plant response rating, Soybean [8, 17]: 95
- Plant response rating, Soybean [8, 18]: 95
- Plant response rating, Soybean [8, 23]: 95
- Plant response rating, Soybean [8, 15]: 0
- Plant response rating, Soybean [8, 20]: 70
- Plant response rating, Soybean [8, 24]: 80
- Plant response rating, Velvetleaf [9, 22]: 85
- Plant response rating, Velvetleaf [9, 17]: 85
- Plant response rating, Velvetleaf [9, 18]: 95
- Plant response rating, Velvetleaf [9, 23]: 98
- Plant response rating, Velvetleaf [9, 15]: 80
- Plant response rating, Velvetleaf [9, 20]: 98
- Plant response rating, Velvetleaf [9, 24]: 98
- Plant response rating, Surinam Grass [10, 22]: 85
- Plant response rating, Surinam Grass [10, 17]: 95
- Plant response rating, Surinam Grass [10, 18]: 98
- Plant response rating, Surinam Grass [10, 23]: 98
- Plant response rating, Surinam Grass [10, 15]: 75
- Plant response rating, Surinam Grass [10, 20]: 85
- Plant response rating, Surinam Grass [10, 24]: 100
- Plant response rating, Windgrass [11, 22]: 60
- Plant response rating, Windgrass [11, 17]: 80
- Plant response rating, Windgrass [11, 18]: 85
- Plant response rating, Windgrass [11, 23]: 95
- Plant response rating, Chickweed [12, 22]: 85
- Plant response rating, Chickweed [12, 17]: 98
- Plant response rating, Chickweed [12, 18]: 98
- Plant response rating, Chickweed [12, 23]: 100
- Plant response rating, Canarygrass [13, 22]: 40
- Plant response rating, Canarygrass [13, 17]: 80
- Plant response rating, Canarygrass [13, 18]: 90
- Plant response rating, Canarygrass [13, 23]: 90
